Six molecules from US8748598B2, “Analogs of 3-O-acetyl-11-keto-beta-boswellic acid” (Laila Nutraceuticals, priority 2004, dated 2014) can be followed below.

≈ marks a conversion by molar mass, not a printed value. Where “and” joins values, the source holds several entries; their conditions need not be identical. Equal values may be shown once. Read-outs that look alike come from different tables or passages of the source. A value given as a limit tells only on which side of the number the result lay.

In data set [1] the test system is MDA-MB-231. Briefly: MDA-MB-231 clone (colony) formation in vitro. The data set is classed as cell-based, human. As to conditions: 25 μg/ml, 8 days. The procedure: Inhibitory efficacy in clone formation of LI-51255 was tested by following the procedure described earlier with some modifications (Wu et al. 2005). Briefly, MDA-MB-231 cells were harvested and seeded into 6-well plates (100 cells/ml). The cells were allowed to grow for 4 days and thereafter, the cells were incubated with DMEM containing either 0.5% DMSO or 25 μg/ml AKBA or different concentrations (1.0, 1.5, 2.0, 2.5 μg/ml) of LI-51255 for further 8 days. Fresh medium containing test agents was replaced at every 24 h. Finally, the wells were washed three times with PBS and fixed in methanol for 15 min. The cells were stained with Giemsa stain and observed under microscope. The image of the stained wells were captured digitally (Kodak Image Station 4000MM, Carestream Health Inc., New Haven, Conn.) and number of colonies were counted and analyzed by using NIH Image J software.

Data set [2] deals with Freund's Adjuvant-induced arthritis in Wistar Albino rats. Description: Freund's adjuvant-induced arthritis, paw edema. As to conditions: 10 mg/kg daily oral for 30 days; edema 13 days after Freund's Adjuvant. The data set is classed as in vivo. The procedure: The Wistar Albino rats were divided into four groups with […] each group. The two treatment groups, each containing 6 animals, were orally supplemented with one of the two analogs namely glycinate of AKBA (10) or piperazine amide of AKBA (23) in 1% carbomethylcellulose (CMC) at a daily dose of 10 mg/kg for 30 days. The control group of animals received same volume of 1% CMC orally and a positive control group received 10 mg/kg daily dose of prednisolone for direct comparison. Following the 30 day treatment and one hour after the last dose all the animals were challenged with 0.1 mL of 1% solution of Freund's Adjuvant through a subcutaneous injection in the sub-plantar region of left hind paw. The paw volume was measured using a plethymograph. The difference between the paw volumes measured before and 13 days after the Freund's Adjuvant injection was taken as edema volume. The percentage inhibition was calculated by comparing the mean edema of the control group and treatment groups.

Data set [3] concerns MDA-MB-231. Description: MTT cell proliferation assay, MDA-MB-231. The data set is classed as cell-based, human. The conditions noted are these: Table 4; for IC50: Homo sapiens, MDA-MB-231. The procedure: (§1) MTT [3-(4,5-dimethylthiazol-2-yl)-2,5-diphenyltetrazolium bromide] incorporation based cell proliferation assay was performed as described previously (Reference). The cytotoxic efficacy of some analogs was evaluated in different cell lines by MTT cell proliferation assay kit (Roche Applied Sciences, Germany). The assay was carried out according to the instruction provided by the vendor. Briefly, in brief, equal numbers of cells was plated in 96-well flat-bottomed plates in 100 μl of medium and were exposed to different analogs selected from 1 to 63 at various concentrations up to 10 μg/ml for a period of three days. Vehicle control culture wells received only a maximum of 0.5% DMSO. Thereafter, 0.5 mg/ml of MTT reagent was added to each well and the microplate was incubated further for 4 h at 37° C. in presence of 5% CO2. Finally, the cells were solubilized by adding solubilizing solution and allowed to incubate at 37° C. overnight. After complete solubilization of the formazan crystals the absorbance was read at 540 nm in a microplate reader (BioRad, USA). The results (mean OD±SD) obtained from quadruplicate wells were used in calculation to determine the inhibition of cell proliferation (50% of inhibitory concentration, IC50) of the test compounds.
(§2) The cytotoxic properties of some analogs were evaluated by MTT incorporation assay. The methodology of the assay procedure was the same as mentioned in example 41.
Background: Tetrazolium dyes change colour on reduction, which living cells bring about.

For data set [4], the system named is HePG2. Briefly: Cytotoxicity MTT assay, HePG2. In kind it is cell-based, human. Also on record: unit not given here. The procedure:
as §1, §2

Data set [5] has as its system MCF-7. Briefly: MTT cell proliferation assay, MCF-7. The data set is classed as cell-based, human. The conditions noted are these: Table 4; for IC50: Homo sapiens, MCF7. The procedure: as §1, §2
Data set [6] relates to Jurkat. In kind it is cell-based, human. Also on record: minimum inhibitory concentration (MIC) Jurkat: unit not given here. As to conditions: MTT assay. The method, then: as §1, §2
Data set [7] relates to PC3M. Description: Cytotoxicity MTT assay, PC3M. Also noted: minimum inhibitory concentration (MIC) PC3M: unit not given here. As to conditions: for minimum inhibitory concentration (MIC) PC3M: MTT assay. The data set is classed as cell-based, human.
For data set [8], the system named is Brine shrimp. Briefly: Brine shrimp lethality. In kind it is in vivo. The conditions noted are these: for IC50: read-out: Brine shrimp lethality IC50. The procedure: The Brine shrimp lethality was evaluated for the analogs 1 to 28 and compared the activities with those of AKBA and a standard compound podophyllotoxin. The data was summarized already disclosed in our earlier application Ser. No. 10/540,257 which is granted under U.S. Pat. No. 7,625,947 which is incorporated herein by reference. The magnitude of Brine shrimp lethality obtained for the analogs has significant correlation with 5-LOX inhibitory activity.

Consider “3-O-acetyl-11-keto-β-boswellic acid [AKBA, reference compound]”, for which the MDA-MB-231 colony formation entry in data set [1] is “inhibition of MDA-MB-231 colony formation”.

With `C[C@@H]1CC[C@]2(C)CC[C@]3(C)C(=CC(=O)C4[C@@]5(C)CC[C@@H](OC(=O)CN)[C@](C)(C(=O)O)C5CC[C@]43C)C2[C@H]1C` (stereo partly drawn) [Analog 10], the “inhibition of paw edema” value in data set [2] is given as 12%. Also, the results for the IC50 in data set [3] and in data set [5] were 19.5 mg/L (≈ 36.9 µM) and 26.9 mg/L (≈ 51 µM), respectively. In addition, the “minimum inhibitory concentration (MIC) HePG2” value in data set [4] is greater than 150. Further, the “minimum inhibitory concentration (MIC) Jurkat” value in data set [6] came to 50. Also, in data set [7], the “minimum inhibitory concentration (MIC) PC3M” value is on record as 50.

Regarding `CC(=O)OC1CCC2(C)C(CCC3(C)C2C(=O)C=C2C4C(C)C(C)CCC4(C)CCC23C)C1(C)C(=O)N1CCNCC1` (stereo not drawn) [Analog 23], the “inhibition of paw edema” value in data set [2] is 16.4% and 16.3%. For the same molecule, in data set [3], the “IC50 values MDA-MB-231” value was “IC50 at 5.53 μg/ml”. Also, the “minimum inhibitory concentration (MIC) HePG2” value in data set [4] was 40. In data set [8] (in vivo), the IC50 was determined as 0.88 µM. Also, the “IC50 values MCF-7” value in data set [5] is “IC50 at 9.03 μg/ml”. Further, in data set [6], the “minimum inhibitory concentration (MIC) Jurkat” value is given as 50. In data set [7], the “cytotoxicity against PC3M” value is “significantly more potent” and the “minimum inhibitory concentration (MIC) PC3M” value is reported as 10.

In turn, `CC(=O)O[C@@H]1CC[C@@]2(C)C(CC[C@]3(C)C2C(=O)C=C2C4[C@@H](C)[C@H](C)CC[C@]4(C)CC[C@]23C)[C@@]1(C)N` (stereo partly drawn) [Analog 25] gave an IC50 in data set [3] of 13.2 mg/L (≈ 27.3 µM). In addition, the “minimum inhibitory concentration (MIC) HePG2” value in data set [4] amounted to 50. Also, in data set [8] (in vivo), the “inhibitory capabilities against brine shrimp” value is “potent inhibitory capabilities”. In data set [5], this molecule showed an IC50 of 14 mg/L (≈ 28.9 µM). The “minimum inhibitory concentration (MIC) Jurkat” value in data set [6] was found to be 50. Also, in data set [7], the “cytotoxicity against PC3M” value is given as “significantly more potent” and the “minimum inhibitory concentration (MIC) PC3M” value stood at 30.

For `COc1cc([C@@H]2c3cc4c(cc3[C@H](O)[C@H]3COC(=O)[C@H]23)OCO4)cc(OC)c1OC` [podophyllotoxin, reference compound], the 50% inhibitory concentration (IC50) in data set [8] came out at 3 µM.

As to `C[C@]12C=CC(=O)C=C1CC[C@@H]1[C@@H]2[C@@H](O)C[C@@]2(C)[C@H]1CC[C@]2(O)C(=O)CO` [prednisolone, reference compound], in data set [2], the “inhibition of paw edema” value came to 16.8%.

The term IC50 denotes the concentration at which inhibition is half-maximal.
